{"source": "paper PMC3607106", "about": "(Biochemistry, 2009)", "key": {"[1]": {"biological_target": "2PITC-modified MIF (human MIF covalently modified at Pro1 by 2-piperidinoethyl isothiocyanate) (human) (UniProt P14174)", "assay": "SEC-MALS"}, "MIF [2]": {"biological_target": "T1, MIF (Homo sapiens, UniProt P14174)", "T1 sequence (P14174 2-115)": "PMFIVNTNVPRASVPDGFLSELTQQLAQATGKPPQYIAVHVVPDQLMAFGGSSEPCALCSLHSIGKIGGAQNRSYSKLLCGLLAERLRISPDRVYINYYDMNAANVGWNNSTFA", "assay": "Covalent modification of MIF by MALDI-TOF MS and tryptic peptide mapping", "type": "binding", "conditions": "for site of covalent modification of MIF: trypsin digestion, peptide mapping, MS/MS, 10 μM"}, "MIF [3]": {"biological_target": "T1, MIF", "assay": "MIF tautomerase activity", "type": "biochemical"}, "HeLa cells": {"test_system": "HeLa cells", "assay": "Phospho Akt activation by MIF", "type": "cell-based, human"}, "murine MIF": {"biological_target": "murine MIF (Mus musculus, UniProt P34884)", "assay": "MIF tautomerase activity", "type": "biochemical", "conditions": "read-out: inhibition of the tautomerase activity"}, "MIF [4]": {"test_system": "MIF", "assay": "Covalent modification of MIF by MALDI-TOF MS and tryptic peptide mapping", "type": "binding, human", "conditions": "10 μM BITC, 60 min"}, "human macrophages": {"test_system": "human macrophages", "assay": "Glucocorticoid overriding assay", "type": "cell-based"}, "lysozyme": {"test_system": "lysozyme", "assay": "BITC modification specificity by MALDI-TOF", "type": "binding", "conditions": "equimolar, 1 h or overnight at RT"}, "MIF [5]": {"biological_target": "T1, MIF", "assay": "Sedimentation velocity analytical ultracentrifugation of MIF", "conditions": "MIF 10 μM preincubated with 6 μM BITC 1 h RT"}, "α-synuclein": {"biological_target": "α-synuclein (Homo sapiens, UniProt P37840)", "assay": "BITC modification specificity by MALDI-TOF", "type": "binding", "conditions": "equimolar, 1 h or overnight at RT"}, "ubiquitin": {"biological_target": "ubiquitin (Homo sapiens, UniProt P0CG47)", "assay": "BITC modification specificity by MALDI-TOF", "type": "binding", "conditions": "equimolar, 1 h or overnight at RT"}, "[6]": {"biological_target": "AITC-modified MIF (human MIF covalently modified at Pro1 by allyl isothiocyanate) (human) (UniProt P14174)", "assay": "SEC-MALS"}, "[7]": {"biological_target": "BITC-modified MIF (human MIF covalently modified at Pro1 by benzyl isothiocyanate) (human) (UniProt P14174)", "assay": "AUC"}, "[8]": {"biological_target": "BITC-modified MIF (human MIF covalently modified at Pro1 by benzyl isothiocyanate) (human) (UniProt P14174)", "assay": "SEC-MALS"}, "[9]": {"biological_target": "EITC-modified MIF (human MIF covalently modified at Pro1 by ethyl isothiocyanate) (human) (UniProt P14174)", "assay": "SEC-MALS"}, "[10]": {"biological_target": "MITC-modified MIF (human MIF covalently modified at Pro1 by methallyl isothiocyanate) (human) (UniProt P14174)", "assay": "SEC-MALS"}, "[11]": {"biological_target": "human macrophage migration inhibitory factor (MIF), unmodified (human) (UniProt P14174)", "assay": "AUC"}, "[12]": {"biological_target": "human macrophage migration inhibitory factor (MIF), unmodified (human) (UniProt P14174)", "assay": "SEC-MALS"}}, "data": [{"compound": "2PITC-modified MIF (human MIF covalently modified at Pro1 by 2-piperidinoethyl isothiocyanate) (from UniProt P14174 1-115) (natural protein)", "values": [{"measurement": "stoichiometry N", "setting": "[1]", "value": 3}]}, {"compound": "S=C=NCCN1CCCCC1", "note": "[2PITC, 2-Piperidinoethyl isothiocyanate]", "values": [{"measurement": "site of covalent modification of MIF", "setting": "MIF [2]", "value": "shown to modify MIF at the N-terminal Pro residue"}, {"measurement": "IC50", "setting": "MIF [3]", "value": 3.09, "unit": "µM"}]}, {"compound": "C=CCN=C=S", "note": "[AITC, allyl isothiocyamate]", "values": [{"measurement": "site of covalent modification of MIF", "setting": "MIF [2]", "value": "shown to modify MIF at the N-terminal Pro residue"}]}, {"compound": "S=C=NCc1ccccc1", "note": "[BITC, Benzyl isothiocyanate]", "values": [{"measurement": "MIF-induced Akt phosphorylation", "setting": "HeLa cells; BITC 1 and 10 μM, MIF 50 ng/mL, 2 h", "value": "inhibited MIF-induced Akt phosphorylation"}, {"measurement": "baseline Akt phosphorylation", "setting": "HeLa cells; BITC alone", "value": "did not modify baseline Akt phosphorylation"}, {"measurement": "inhibition at 10 µM", "setting": "murine MIF", "value": 100, "unit": "%"}, {"measurement": "formation of BITC-MIF adduct (MALDI-TOF)", "setting": "MIF [2]; concentrations > 10 μM, MIF 15 μM, Tris 50 mM pH 7.4, 60 min", "value": "complete conversion to the singly modified form of MIF"}, {"measurement": "site of covalent modification of MIF", "setting": "MIF [2]", "value": "modification takes place at the N-terminal proline residue"}, {"measurement": "modification of inactive MIF proteins", "setting": "MIF [4]; R73AΔ5, R73AΔ10 or P107", "value": "no modification was observed"}, {"measurement": "modification of enzymatically active forms of MIF", "setting": "MIF [4]; Wt, N110C and R73A", "value": "total modification"}, {"measurement": "MIF-mediated dexamethasone overriding", "setting": "human macrophages; BITC 10 μM, MIF 100 ng/mL, Dex 100 nM, LPS 100 ng/mL, 4 h", "value": "abrogated MIF-mediated dexamethasone overriding"}, {"measurement": "TNF production", "setting": "human macrophages; BITC 10 μM, LPS-stimulated, compared with dexamethasone", "value": "decreased TNF production even more potently than dexamethasone"}, {"measurement": "macrophage viability", "setting": "human macrophages; culture conditions used to induce TNF production (data not shown)", "value": "did not alter macrophage viability"}, {"measurement": "modification of lysozyme (MS)", "setting": "lysozyme", "value": "No modification was detected"}, {"measurement": "quaternary structure distribution of MIF (sedimentation velocity)", "setting": "MIF [5]", "value": "sedimented predominantly as a single species"}, {"measurement": "modification of α-synuclein (MS)", "setting": "α-synuclein", "value": "No modification was detected"}, {"measurement": "modification of ubiquitin (MS)", "setting": "ubiquitin", "value": "No modification was detected"}, {"measurement": "inhibition at 10 µM", "setting": "MIF [3]; read-out: inhibition of the tautomerase activity", "value": 100, "unit": "%"}]}, {"compound": "S=C=NC1CC1", "note": "[CPITC, cyclopropyl isothiocyanate]", "values": [{"measurement": "site of covalent modification of MIF", "setting": "MIF [2]", "value": "shown to modify MIF at the N-terminal Pro residue"}]}, {"compound": "CCN=C=S", "note": "[EITC, ethyl isothiocyanate]", "values": [{"measurement": "site of covalent modification of MIF", "setting": "MIF [2]", "value": "shown to modify MIF at the N-terminal Pro residue"}]}, {"compound": "C=C(C)CN=C=S", "note": "[MITC, methallyl Isothiocyanate]", "values": [{"measurement": "site of covalent modification of MIF", "setting": "MIF [2]", "value": "shown to modify MIF at the N-terminal Pro residue"}]}, {"compound": "C[C@@H]1C[C@H]2[C@@H]3CCC4=CC(=O)C=C[C@]4(C)[C@@]3(F)[C@@H](O)C[C@]2(C)[C@@]1(O)C(=O)CO", "note": "[dexamethasone, reference compound]", "values": [{"measurement": "TNF production by LPS-stimulated monocytes", "setting": "human macrophages; dexamethasone 100 nM", "value": "inhibited TNF production"}]}, {"compound": "AITC-modified MIF (human MIF covalently modified at Pro1 by allyl isothiocyanate) (from UniProt P14174 1-115) (natural protein)", "values": [{"measurement": "stoichiometry N", "setting": "[6]", "value": 3}]}, {"compound": "BITC-modified MIF (human MIF covalently modified at Pro1 by benzyl isothiocyanate) (from UniProt P14174 1-115) (natural protein)", "values": [{"measurement": "stoichiometry N", "setting": "[7]", "value": 3}, {"measurement": "stoichiometry N", "setting": "[8]", "value": 3}]}, {"compound": "EITC-modified MIF (human MIF covalently modified at Pro1 by ethyl isothiocyanate) (from UniProt P14174 1-115) (natural protein)", "values": [{"measurement": "stoichiometry N", "setting": "[9]", "value": 3}]}, {"compound": "MITC-modified MIF (human MIF covalently modified at Pro1 by methallyl isothiocyanate) (from UniProt P14174 1-115) (natural protein)", "values": [{"measurement": "stoichiometry N", "setting": "[10]", "value": 3}]}, {"compound": "human macrophage migration inhibitory factor (MIF), unmodified (from UniProt P14174 1-115) (natural protein)", "values": [{"measurement": "stoichiometry N", "setting": "[11]", "value": 3}, {"measurement": "stoichiometry N", "setting": "[12]", "value": 3}]}]}
